Experiment: Boiling stability of micronutrients in water at 100 °C (simulated cooking)
Assay type: physicochemical
Protocol: To evaluate the effects on VA stabilization, VA (10% wt) was encapsulated with MPs fabricated from PAE_C, PAE_D, or PAE_E. The resulting MPs were tested in boiling water for 2 hours.
The boiling stability of micronutrients in PAE MP was studied in water at 100° C. At each time point, samples were lyophilized to obtain the boiled product.
High-performance liquid chromatography (HPLC), inductively coupled plasma-optical emission spectrometer (ICP-OES), and colorimetric assay kits were used for micronutrient quantification.

Structure (SMILES): CCCCCCCCCCCCCCCC(=O)OC/C=C(C)/C=C/C=C(C)/C=C/C1=C(C)CCCC1(C)C [VA, retinyl palmitate]
- VA recovered after boiling for 0.5 h: less than 20%

— patent US20250144032A1, “POLY(BETA-AMINO ESTER) MICROPARTICLES FOR MICRONUTRIENT FORTIFICATION” (Massachusetts Institute of Technology, priority 2021, published 2025)
